Assay results from the CheMixHub viscosity set.

Assay: xn = mol fraction of the nth substance listed

CC(C)CO + CC#N
viscosity [mPa·s]
Conditions	x2 = 0.1676	x2 = 0.3118	x2 = 0.4373	x2 = 0.5476	x2 = 0.6442	x2 = 0.7304	x2 = 0.8083	x2 = 0.8784	x2 = 0.942	x2 = 0.9432
298.15 K, 101.3 kPa	1.788	1.186	0.87	0.692	0.567	0.483	0.434	0.395	0.371	–
303.15 K, 101 kPa	–	–	–	–	–	–	–	–	–	0.5569
303.15 K, 101.3 kPa	1.582	1.064	0.793	0.634	0.532	0.455	0.411	0.376	0.362	–
308.15 K, 101.3 kPa	1.389	0.962	0.725	0.586	0.494	0.428	0.39	0.358	0.344	–
313.15 K, 101.3 kPa	1.232	0.869	0.664	0.548	0.461	0.405	0.373	0.342	0.324	–

CCCCCOC(=O)CCC + CC(=O)O
viscosity [mPa·s], 101 kPa
Conditions	298.15 K	313.15 K
x1 = 0.1013	1.06	0.853
x1 = 0.1499	1.04	0.836
x1 = 0.2007	1.02	0.824
x1 = 0.2515	1.03	0.827
x1 = 0.3014	1.03	0.833
x1 = 0.4	1.04	0.833
x1 = 0.4999	1.05	0.846
x1 = 0.6018	1.07	0.85
x1 = 0.6919	1.08	0.859
x1 = 0.804	1.08	0.86
x1 = 0.8906	1.08	0.861
x1 = 0.9459	1.07	0.859

CCCCCOC(C)=O + CC(=O)O
viscosity [mPa·s], 101 kPa
Conditions	x1 = 0.0945	x1 = 0.2018	x1 = 0.3035	x1 = 0.4048	x1 = 0.4599	x1 = 0.5117	x1 = 0.6074	x1 = 0.6957	x1 = 0.7878	x1 = 0.8912
298.15 K	1.055	1.049	0.994	0.978	1.002	1.006	0.98	0.974	0.917	0.881
313.15 K	0.853	0.831	0.799	0.781	0.797	0.798	0.777	0.772	0.734	0.708

Cc1ccccc1O + CC(=O)O
viscosity [mPa·s], 101 kPa
Conditions	x2 = 0.167	x2 = 0.3109	x2 = 0.4361	x2 = 0.5461	x2 = 0.6434	x2 = 0.7302	x2 = 0.8081	x2 = 0.8783	x2 = 0.942
298.15 K	5.871	4.718	3.853	3.149	2.615	2.165	1.808	1.529	1.307
308.15 K	4.539	3.776	3.151	2.619	2.204	1.86	1.595	1.328	1.139
318.15 K	3.157	2.82	2.465	2.137	1.812	1.542	1.322	1.135	0.9519

CCCCCOC(C)=O + CC(=O)OCc1ccccc1
Conditions	viscosity [mPa·s]
298.15 K, 101 kPa, x1 = 0.5	0.9738

CCCCCOC(C)=O + CC(=O)c1ccccc1
298.15 K, 101 kPa
Conditions	viscosity [mPa·s]
x2 = 0.0465	0.802
x2 = 0.0891	0.8174

CN(C)CCO + CC(=O)c1ccccc1
viscosity [mPa·s], 101.3 kPa
Conditions	x2 = 0.0879	x2 = 0.1782	x2 = 0.2709	x2 = 0.3663	x2 = 0.4644	x2 = 0.5654	x2 = 0.6693	x2 = 0.7762	x2 = 0.8864
303.15 K	2.331	2.243	2.155	2.067	1.98	1.892	1.804	1.716	1.628
313.15 K	1.952	1.882	1.811	1.741	1.67	1.6	1.529	1.459	1.388
323.15 K	1.689	1.644	1.6	1.555	1.51	1.465	1.42	1.375	1.33

Cc1ccccc1O + CC(=O)c1ccccc1
303.15 K, 101 kPa
Conditions	viscosity [mPa·s]
x2 = 0.11	5.369
x2 = 0.2168	4.793
x2 = 0.3155	4.305
x2 = 0.4164	3.832
x2 = 0.4556	3.653
x2 = 0.5575	3.206
x2 = 0.6919	2.635
x2 = 0.7608	2.358
x2 = 0.9488	1.668

CCCCCOC(C)=O + CC(C)=O
298.15 K, 101 kPa
Conditions	viscosity [mPa·s]
x2 = 0.17	0.688
x2 = 0.336	0.6224

ClCC(Cl)Cl + CC(C)=O
298.15 K, 101 kPa
Conditions	viscosity [mPa·s]
x2 = 0.212	0.91
x2 = 0.366	0.799
x2 = 0.497	0.677
x2 = 0.611	0.577
x2 = 0.704	0.509
x2 = 0.779	0.456
x2 = 0.837	0.411
x2 = 0.949	0.347

C1CCC2=[NH+]CCCN2CC1.c1nc[n-]n1 + CC(C)O
303.15 K, 100 kPa
Conditions	viscosity [mPa·s]
x1 = 0.1001	7.85
x1 = 0.2	11.12
x1 = 0.2999	23.38
x1 = 0.4003	47.5
x1 = 0.4989	98.71
x1 = 0.6002	185.2
x1 = 0.7008	298.3
x1 = 0.7993	439.8
x1 = 0.9002	746.1

CC(C)CO + CC(C)O
viscosity [mPa·s], 101 kPa
Conditions	x2 = 0.2	x2 = 0.4	x2 = 0.6	x2 = 0.8
293.15 K	3.536	3.163	2.856	2.597
313.15 K	1.923	1.742	1.586	1.449

CCCCCC + CC(C)O
viscosity [mPa·s], 101 kPa
Conditions	298.15 K	308.15 K
x2 = 0.0486	0.318	0.26
x2 = 0.1046	0.326	0.268
x2 = 0.1633	0.334	0.276
x2 = 0.272	0.364	0.31
x2 = 0.3138	0.377	0.33
x2 = 0.3636	0.399	0.36
x2 = 0.4036	0.42	0.382
x2 = 0.5026	0.496	0.451
x2 = 0.563	0.557	0.508
x2 = 0.6074	0.613	0.561
x2 = 0.6996	0.763	0.694
x2 = 0.8182	1.06	0.934
x2 = 0.9038	1.4	1.237
x2 = 0.9566	1.723	1.379

CC(C)(C)c1ccccc1 + CC(C)c1ccccc1
303.15 K, 101.3 kPa
Conditions	viscosity [mPa·s]
x2 = 0.039	0.9864
x2 = 0.1371	0.9507
x2 = 0.2661	0.9067
x2 = 0.4247	0.8551
x2 = 0.4906	0.8347
x2 = 0.6105	0.7984
x2 = 0.7457	0.7572
x2 = 0.8708	0.7224
x2 = 0.9592	0.6981

CCCCCCCCCCCCCC(=O)OC + CCC1CCCCC1
viscosity [mPa·s], 100 kPa
Conditions	x2 = 0.1016	x2 = 0.2015	x2 = 0.3	x2 = 0.4021	x2 = 0.4997	x2 = 0.6005	x2 = 0.7005	x2 = 0.7999	x2 = 0.9
293.15 K	4.029	3.57	3.134	2.705	2.312	1.944	1.626	1.342	1.089
298.15 K	3.577	3.181	2.785	2.419	2.079	1.774	1.489	1.237	1.009
303.15 K	3.173	2.839	2.508	2.191	1.893	1.616	1.367	1.14	0.935
308.15 K	2.804	2.513	2.231	1.948	1.701	1.469	1.248	1.045	0.862
313.15 K	2.532	2.282	2.035	1.797	1.578	1.362	1.163	0.978	0.812
318.15 K	2.328	2.104	1.887	1.666	1.469	1.277	1.097	0.93	0.772
323.15 K	2.1	1.912	1.724	1.541	1.361	1.184	1.018	0.866	0.723

Cc1ccccc1O + CCC(=O)O
viscosity [mPa·s], 101 kPa
Conditions	x2 = 0.1315	x2 = 0.2542	x2 = 0.3688	x2 = 0.4761	x2 = 0.5768	x2 = 0.6716	x2 = 0.7608	x2 = 0.845	x2 = 0.9246
298.15 K	6.126	4.978	4.056	3.325	2.73	2.216	1.816	1.505	1.253
308.15 K	4.701	3.949	3.325	2.79	2.329	1.93	1.606	1.33	1.1
318.15 K	3.245	2.875	2.527	2.198	1.885	1.6	1.333	1.126	0.9354

CC(C)CO + CCC(C)O
Conditions	viscosity [mPa·s]
313.15 K, 101 kPa, x2 = 0.3008	2.005
